Experimental data from patent US20090247579A1, “2-[3H-THIAZOL-2-YLIDINEMETHYL]PYRIDINES AND RELATED COMPOUNDS AND THEIR USE” (CANCER RESEARCH TECHNOLOGY LIMITED, priority 2006, published 2009).

What was measured:
LOVO (MSH2) = experiment: Modified MTT assay, colon panel LOVO; type: cell-based; conditions: Homo sapiens, MMR deficient, p53 wt, read-out: MMR201 IC50
Method: (§1) Relative drug sensitivities (Resistance Factor) and IC50 values were determined by a modified MTT assay (see, e.g., Mosmann, 1983; Plumb et al., 1989), as described below: • (1) Trypsinise a sub-confluent monolayer culture and collect cells in growth medium containing serum. Centrifuge the suspension (200 g, 5 minutes) to pellet cells, re-suspend in growth medium, and count cells. Dilute cells to a density of 5×10^3 cells/mL allowing 60 mL of cell suspension for 3 microtitre plates. Transfer cell suspension to a 10 cm petri dish, and with a multichannel pipette add 200 μL to each well of the central 10 columns of a flat bottomed 96-well plate (80 wells per plate) starting with column 2 and ending with column 11. Add 200 μL of growth medium to the 8 wells in columns 1 and 12. […] Pipette 6 mL of growth medium in to each of 7 universal containers (30 mL). Prepare 10 mL of the highest concentration of the drug and transfer 1.5 mL of this solution to the first universal container. Mix and then transfer 1.5 mL to the next universal container. Continue until the seventh universal container is reached. The concentrations should be chosen so that the highest concentration kills most of the cells and the lowest kills none of the cells.

p53 = experiment: Induction of p53 expression; type: cell-based; conditions: at doses that were shown to induce apoptosis
PARP cleavage = experiment: Apoptosis as determined by PARP cleavage; type: cell-based
[1] = system: A2780/cp70 human ovarian, cisplatin resistant, cell line grown as xenograft; experiment: Xenograft study, A2780/cp70 in nude mice; type: in vivo; conditions: single bolus day 0, MMR201 1 mg/kg i.v. (tolerated dose), cisplatin 6 mg/kg i.p. (maximum tolerated dose)
Method: (§2) For xenograft experiments, tumour cells were injected into the flanks of athymic nude mice and allowed to establish until palpable tumour could be detected. Following single bolus injection of drug, tumour growth was monitored using calliper measurement of tumour size and calculation of tumour volume.
(§3) Cells in exponential phase of growth were harvested with trypsin and re-suspended in phosphate buffered saline. About 10^7 cells in a total volume of 200 μL of PBS were injected subcutaneously in the right flank of CD1 nude mice. They were used for experiments after about 7 to 10 days by which time the mean tumour diameter was about 0.5 cm.
(§4) Mice were weighed and tumour volumes measured. The mice were randomised in groups of 6 and treated either with the drug or with the solvent alone. The drug was dissolved in DMSO and diluted in sterile PBS just before injection to give a final DMSO concentration of 1%. The drugs solution was prepared such that the injection volume was 5 μL per gram body weight. […]
(§5) Mice were then weighed daily and tumour volumes estimated from two measurements of the diameter taken at a 90° angle. The volume was determined by the formula: v=D^3/6×π, where v=volume and D is the mean diameter. Results (Mean and SEM) are expressed as the relative tumour volume, which is the tumour volume on any given day divided by the initial tumour volume calculated for each mouse.

[2] = system: HCT116 human colon tumour cell line grown as xenograft; experiment: Xenograft study, HCT116 in nude mice; type: in vivo; conditions: single bolus day 0, MMR201 1 or 2 mg/kg i.v. (tolerated doses), cisplatin 6 mg/kg i.p. (maximum tolerated dose)
Method: as §2, §3, §4, §5

CACO2 = experiment: Modified MTT assay, colon panel CACO2; type: cell-based; conditions: Homo sapiens, Caco-2, MMR proficient, p53 mut, read-out: MMR201 IC50
Method: as §1

**Q.** Which results are given for CC[n+]1c(/C=C2\Sc3oc4ccccc4c3N2C)ccc2cc(C)ccc21.[I-] [MMR201]?
**A.** IC50 (LOVO (MSH2)): 431 ± 11.2 nM; Induction of p53 expression (p53): does not induce expression of p53; Apoptosis in MLH1 negative cells (PARP cleavage; MLH1 negative cells, PARP cleavage, 24 hours): increased apoptosis at lower drug concentrations; Apoptosis as determined by PARP cleavage (PARP cleavage; incubation for 24 hours): induces apoptosis; Tumour growth (relative tumour volume) of A2780/cp70 xenograft [1]: can inhibit growth; Tumour growth (relative tumour volume) of HCT116 xenograft [2]: inhibits growth; IC50 (CACO2): 474 ± 16 nM
